{
  "source": "paper PMC10518255",
  "about": "“A first-in-class pan-lysyl oxidase inhibitor impairs stromal remodeling and enhances gemcitabine response and survival in pancreatic cancer” (Nature Cancer, 2023)",
  "test_system": "pMLC2",
  "test": "Immunohistochemistry of end-point KPC tumors: stromal regions",
  "assay_type": "in vivo, mouse",
  "conditions": "for Quantification of pMLC2 positive staining in stromal regions: Extended Data 6D, KPC tumours at endpoint, individual FOV",
  "description": "All tissues or matrices, including patient TMAs, were fixed in 10% buffered formalin and embedded in paraffin. The 4-μm sections of samples were deparaffinized with xylene and rehydrated in graded ethanol washes. For immunohistochemistry, Bond Dewax Solution (AR9222) was used. Antigen retrieval was performed using Bond RX H2(30) protocol: HIER 30 min ER1 (citrate pH 6) OR ER2 (EDTA pH 9) at 100 °C. Slides were quenched in BOND Polymer Refine Detection (Leica Biosystems DS9800). […] Slides were digitized on an Aperio slide scanner and representative areas per tumor acquired and analyzed by researchers blinded to the conditions of the experiment.\nExtended Data Fig. 6 PXS-5505 in combination with gemcitabine in a KPC model. a. Quantification of proliferating cells (Ki67 positive nuclear staining) in KPC tumors at end point, treated as indicated. 5 fields of view (500 μm × 500 μm) per mouse and 10 mice per cohort were scored. […] Quantification of percent coverage of αSMA positive staining in KPC tumors at end point, treated as indicated. 3 fields of view (1000 μm × 1000 μm) per mouse and 10 mice per cohort were scored. […] Quantification of percent coverage of PDGFR-ß positive staining in KPC tumors at end point, treated as indicated. 3 fields of view (1000 μm × 1000 μm) per mouse and 10 mice per cohort were scored. […] Quantification of pMLC2 positive staining in stromal regions of KPC tumors at end point, treated as indicated. 3 fields of view (500 μm × 500 μm) per mouse and 10 mice per cohort were scored. […] Quantification of tumor vasculature (CD31 positive staining) in KPC tumors at end point, treated as indicated. 3 fields of view (1000 μm × 1000 μm) per mouse and 10 mice per cohort were scored. […] Quantification of STAT3 activation (pSTAT3 positive nuclear staining) in KPC tumors at end point, treated as indicated. 3 fields of view (1000 μm × 1000 μm) per mouse and 5 mice per cohort were scored. […] Scale bars = 100 μm. g Quantification of macrophage infiltration (F4/80 positive staining) in KPC tumors at end point, treated as indicated. […]",
  "note": "Several values for one entry are separate records, joined by “and”; a condition that tells them apart may be missing. Equal values may be shown once.",
  "data": [
    {"smiles": "Nc1ccn([C@@H]2O[C@H](CO)[C@@H](O)C2(F)F)c(=O)n1", "note": "[Gem, gemcitabine]", "values": [
      {"measurement": "Quantification of pMLC2 positive staining in stromal regions", "result": "92.08 and 84.2 and 87.45 and 82.3 and 82.92 and 94.71 and 90.49 and 43.06 and 73.39 and 39.68 and 25.28 and 42.05 and 30.69 and 23.6 and 44.73 and 91.07 and 86.73 and 81.83 and 77.4 and 63.11 and 93.35 and 65.58 and 88.53 and 67.95 and 49 and 89.81 and 73.17 and 62.17 and 93.12 and 52.2"},
      {"measurement": "pMLC2 in stromal regions", "setting": "KPC tumors at end point", "result": "increased pMLC2"}
    ]},
    {"smiles": "Cl.Cl.NC/C=C(\\F)CS(=O)(=O)c1cccc2cccnc12.O", "note": "[PXS-5505, (Z)-3-fluoro-4-(quinolin-8-ylsulfonyl)but-2-en-1-amine dihydrochloride monohydrate]", "values": [
      {"measurement": "Quantification of pMLC2 positive staining in stromal regions", "result": "16.71 and 49.28 and 7.302 and 93.81 and 91.78 and 78.97 and 53.28 and 54.73 and 45.61 and 13.2 and 20.93 and 42.23 and 36.07 and 17.51 and 40.83 and 47.04 and 47.28 and 39.88 and 19.03 and 15.52 and 73.22 and 64.14 and 60.07 and 90.97 and 8.8 and 20.91 and 61.66 and 4.245 and 28.34 and 17.54"}
    ]}
  ]
}
